Results on 34 compounds are retold here after ChEMBL document CHEMBL3627699, “Design, synthesis and biological evaluation of 3-aryl-rhodanine benzoic acids as anti-apoptotic protein Bcl-2 inhibitors” (Bioorg Med Chem Lett, 2015).

The target in test [1] is Induced myeloid leukemia cell differentiation protein Mcl-1 (Homo sapiens, UniProt Q07820). The experiment in a line: Inhibition of Mcl-1 (unknown origin) by fluorescence polarization assay. In general terms: Fluorescence polarisation rises when a labelled molecule tumbles more slowly, as on binding a larger partner.
Induced myeloid leukemia cell differentiation protein Mcl-1, sequence (Q07820 whole entry): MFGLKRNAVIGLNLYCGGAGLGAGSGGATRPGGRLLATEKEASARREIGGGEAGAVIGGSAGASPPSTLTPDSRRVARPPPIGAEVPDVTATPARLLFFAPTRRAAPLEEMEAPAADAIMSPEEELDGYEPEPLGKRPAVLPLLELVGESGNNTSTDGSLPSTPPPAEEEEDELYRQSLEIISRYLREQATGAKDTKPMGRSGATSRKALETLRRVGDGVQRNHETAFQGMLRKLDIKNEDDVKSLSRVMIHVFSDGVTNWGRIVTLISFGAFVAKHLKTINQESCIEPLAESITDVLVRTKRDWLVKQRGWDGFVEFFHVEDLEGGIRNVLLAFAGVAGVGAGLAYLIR
In test [2] the target is T1, Apoptosis regulator Bcl-2 (Homo sapiens, UniProt P10415). Nature of the test: Inhibition of Bcl-2 (unknown origin) by fluorescence polarization assay.
T1 sequence (P10415 whole entry): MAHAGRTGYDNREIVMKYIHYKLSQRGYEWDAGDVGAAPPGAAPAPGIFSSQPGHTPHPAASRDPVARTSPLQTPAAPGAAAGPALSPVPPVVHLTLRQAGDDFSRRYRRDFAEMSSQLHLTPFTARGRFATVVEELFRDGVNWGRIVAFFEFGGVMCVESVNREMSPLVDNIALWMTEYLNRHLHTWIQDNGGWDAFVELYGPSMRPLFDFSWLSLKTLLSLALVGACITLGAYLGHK
Another test has as its target Bcl-2-like protein 1 (Homo sapiens, UniProt Q07817). The experiment in a line: Inhibition of Bcl-xL (unknown origin) by fluorescence polarization assay.
The subject of the next test is PC-3. The experiment in a line: Antiproliferative activity against human PC3 cells by MTT assay. Format: functional, cell-based. On the technique in general: Tetrazolium dyes change colour on reduction, which living cells bring about.
Another test deals with MDA-MB-231. Nature of the test: Antiproliferative activity against human MDA-MB-231 cells by MTT assay. Format: functional, cell-based.
A further test concerns K562. The experiment in a line: Antiproliferative activity against human K562 cells by MTT assay. In kind it is functional, cell-based.
For test [3], the target named is T1, Apoptosis regulator Bcl-2. Nature of the test: Inhibition of Bcl-2 (unknown origin) at 100 uM by fluorescence polarization assay.

The Ki is a dissociation constant, usually derived from enzyme kinetics or from competition with a known ligand. The low end stands for a stronger hold on the target, the high end for a looser hold on the target. Broadly, the IC50 is the concentration at which inhibition is half-maximal. The low end stands for greater potency in that assay, the high end for weaker potency in that assay. For orientation: inhibition means the share of the control response that was lost under treatment. Read a low inhibition as little suppression.

Bcl-2-like protein 1, sequence (Q07817 whole entry): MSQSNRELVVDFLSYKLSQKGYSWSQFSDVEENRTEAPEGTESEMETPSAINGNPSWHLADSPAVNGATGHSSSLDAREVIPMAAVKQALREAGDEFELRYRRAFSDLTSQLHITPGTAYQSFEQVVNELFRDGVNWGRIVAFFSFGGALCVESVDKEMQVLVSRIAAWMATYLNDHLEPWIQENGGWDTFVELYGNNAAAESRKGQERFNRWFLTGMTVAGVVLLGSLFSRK

Take `COc1ccccc1N1C(=O)/C(=C/c2cccc(OCc3ccc(C(=O)O)cc3)c2)SC1=S`: the Ki in test [1] was 3.7 µM; in test [2], 1.6 µM; on Bcl-2-like protein 1, > 10 µM.

As for `Cc1ccccc1N1C(=O)/C(=C/c2ccc(OCC(=O)Nc3ccc(C(=O)O)cc3)cc2)SC1=S`, the Ki in test [2] was > 10 µM.

Consider `O=C(O)c1ccc(COc2ccc(/C=C3\SC(=S)N(c4ccc(F)cc4)C3=O)cc2)cc1`, for which the Ki in test [2] was > 10 µM.

Regarding `O=C(O)c1ccc(COc2cccc(/C=C3\SC(=S)N(c4ccc([N+](=O)[O-])cc4)C3=O)c2)cc1`, in test [2], the inhibitory constant (Ki) was > 10 µM.

Consider `O=C(COc1ccc(/C=C2\SC(=S)N(c3ccc([N+](=O)[O-])cc3)C2=O)cc1)Nc1ccc(C(=O)O)cc1`, for which the Ki in test [2] is > 10 µM.

As for `O=C(O)c1ccc(COc2ccc(/C=C3\SC(=S)N(c4c(F)cccc4F)C3=O)cc2)cc1`, the inhibitory constant (Ki) in test [2] is > 10 µM.

For `O=C(O)c1ccc(COc2ccc(/C=C3\SC(=S)N(c4ccccc4)C3=O)cc2)cc1`, the inhibitory constant (Ki) in test [2] is > 10 µM.

The compound `COc1ccccc1N1C(=O)/C(=C/c2ccc(OCC(=O)Nc3ccc(C(=O)O)cc3)cc2)SC1=S` showed an inhibition constant (Ki) in test [2] of 10 µM.

On to `COc1ccccc1N1C(=O)/C(=C/c2ccc(OCc3ccc(C(=O)O)cc3)cc2)SC1=S`, for which the figures for the Ki (in test [1]; in test [2]; at Bcl-2-like protein 1) were 3.9 µM, 2 µM and > 10 µM, respectively.

For the compound `Cc1ccc(N2C(=O)/C(=C/c3ccc(OCc4ccc(C(=O)O)cc4)cc3)SC2=S)cc1`, the Ki in test [2] is > 10 µM.

Consider `O=C(O)c1ccc(COc2ccc(/C=C3\SC(=S)N(c4ccc(I)cc4)C3=O)cc2)cc1`, for which the Ki in test [1] was 1.6 µM; in test [2] it was 4.3 µM; on Bcl-2-like protein 1, > 10 µM.

In the case of `Cc1cccc(C)c1N1C(=O)/C(=C/c2ccc(OCC(=O)Nc3ccc(C(=O)O)cc3)cc2)SC1=S`, affinity in test [2] was put at a Ki of 7.6 µM.

On to `Cc1cccc(N2C(=O)/C(=C/c3ccc(OCC(=O)Nc4ccc(C(=O)O)cc4)cc3)SC2=S)c1`, for which the Ki in test [2] is > 10 µM.

In test [2], `O=C(O)c1ccc([N+](=O)[O-])c(COc2ccc(/C=C3\SC(=S)N(c4ccc([N+](=O)[O-])cc4)C3=O)cc2)c1` registered an inhibition constant (Ki) of 3.1 µM.

Consider `O=C(Nc1ccc(O)c(C(=O)O)c1)c1ccc(/C=C2\SC(=S)N(c3ccc([N+](=O)[O-])cc3)C2=O)cc1`, for which the Ki in test [2] was > 10 µM.

In the case of `O=C(O)c1ccc(COc2ccc(/C=C3\SC(=S)N(Cc4ccc(F)cc4)C3=O)cc2)cc1`, in test [2], the inhibitory constant (Ki) was > 10 µM.

The compound `O=C(O)c1ccc(COc2ccc(/C=C3\SC(=S)N(c4cccc([N+](=O)[O-])c4)C3=O)cc2)cc1` gave a Ki in test [2] of 9.6 µM.

With `O=C(O)c1ccc(COc2ccc(/C=C3\SC(=S)N(c4ccc(Cl)cc4)C3=O)cc2)cc1`, in test [2], the inhibition constant (Ki) is > 10 µM.

On to `Cc1cccc(C)c1N1C(=O)/C(=C/c2ccc(OCc3ccc(C(=O)O)cc3)cc2)SC1=S`, for which the results for the Ki (in test [1]; in test [2]; at Bcl-2-like protein 1) were 0.72 µM, 0.9 µM and 3.9 µM, respectively. Also, the IC50 in the test with PC-3 turned out to be 25.8 µM; in the test on MDA-MB-231 it was 25.6 µM; in the test with K562 it was 46.6 µM.

Take `CC(=O)c1ccc(N2C(=O)/C(=C/c3ccc(OCc4ccc(C(=O)O)cc4)cc3)SC2=S)cc1`: the inhibition constant Ki in test [2] was > 10 µM.

Turning to `Cc1cc2c(C(C)C)c(O)c(O)c(C=O)c2c(O)c1-c1c(C)cc2c(C(C)C)c(O)c(O)c(C=O)c2c1O` [GOSSYPOL], the inhibition constant Ki in test [1] was 0.31 µM; on Bcl-2-like protein 1, 0.64 µM. The IC50 with PC-3 amounted to 5.61 µM; in the test on MDA-MB-231, 4.8 µM; with K562 it was 7.31 µM.

For the compound `Cc1ccc(S(=O)(=O)NC(=O)[C@H](Cc2ccccc2)N2C(=O)/C(=C/c3ccc(-c4ccccc4)cc3)SC2=S)cc1`, the Ki in test [1] came out at 0.29 µM; in test [2], 0.5 µM; on Bcl-2-like protein 1, 0.57 µM. Besides, the IC50 in the test on PC-3 was > 30 µM; with MDA-MB-231, > 30 µM; in the test on K562 it was 32.8 µM.

Regarding `Cc1ccc(N2C(=O)/C(=C/c3ccc(OCC(=O)Nc4ccc(C(=O)O)cc4)cc3)SC2=S)cc1`, the Ki in test [2] was > 10 µM.

Regarding `O=C(O)c1ccc(COc2ccc(/C=C3\SC(=S)N(c4cccc(C(F)(F)F)c4)C3=O)cc2)cc1`, the Ki in test [2] was > 10 µM.

Regarding `O=C(Nc1ccc(O)c(C(=O)O)c1)c1ccc(/C=C2\SC(=S)N(c3ccccc3)C2=O)cc1`, the inhibition constant (Ki) in test [2] is > 10 µM.

For `COc1ccc(N2C(=O)/C(=C/c3ccc(OCc4ccc(C(=O)O)cc4)cc3)SC2=S)cc1`, the Ki in test [2] was > 10 µM.

Turning to `O=C(O)c1ccc(/C=C2\SC(=S)N(c3ccccc3)C2=O)cc1`, the Ki in test [2] is > 10 µM. Moreover, the inhibition in test [3] turned out to be 18%.

With `O=C(COc1ccc(/C=C2\SC(=S)N(c3ccccc3)C2=O)cc1)Nc1ccc(C(=O)O)cc1`, the inhibition constant Ki in test [2] is > 10 µM.

Turning to `O=C(O)c1ccc(COc2ccc(/C=C3\SC(=S)N(c4ccc(Br)cc4)C3=O)cc2)cc1`, the values for the Ki (in test [1]; in test [2]; at Bcl-2-like protein 1) were 0.7 µM, 0.61 µM and > 10 µM, respectively. The half-maximal inhibitory concentration (IC50) came to 18.9 µM with PC-3, 19.8 µM in the test with MDA-MB-231 and 43.8 µM in the test with K562.

Take `O=C(O)c1ccc(COc2cccc(/C=C3\SC(=S)N(c4ccccc4)C3=O)c2)cc1`: the Ki in test [2] was > 10 µM.

Compound `O=C(O)c1ccc([N+](=O)[O-])c(COc2ccc(/C=C3\SC(=S)N(c4ccccc4)C3=O)cc2)c1` returned an inhibitory constant (Ki) in test [2] of 9 µM.

With `Cc1ccccc1N1C(=O)/C(=C/c2cccc(OCc3ccc(C(=O)O)cc3)c2)SC1=S`, the Ki in test [1] is 3.2 µM; in test [2], 3.1 µM; at Bcl-2-like protein 1, > 10 µM.

With `Cc1cccc(N2C(=O)/C(=C/c3ccc(OCc4ccc(C(=O)O)cc4)cc3)SC2=S)c1`, the Ki in test [2] was > 10 µM.

`O=C(O)c1ccc(COc2ccc(/C=C3\SC(=S)N(c4ccc([N+](=O)[O-])cc4)C3=O)cc2)cc1`: the inhibition constant Ki in test [2] was > 10 µM.
